# Data: US6265445A, “Antiarrhythmic compounds” (priority 1997, dated 2001)
# Where a name gives a salt, the structure may show the parent alone. Read-outs that look alike come from different tables or passages of the source.
# How the values were obtained:
# [1] = treatment group; cited from earlier work
# [2] = test system: arrhythmias following coronary artery occlusion in conscious rats; test: Occlusion arrhythmia following acute coronary artery ligation in conscious rats; format: in vivo, male rats; details: for Occurrence of arrhythmias: Brady / Occurrence of arrhythmias: Free (no arrhythmia was observed) / Occurrence of arrhythmias: Other / Occurrence of arrhythmias: VF / Occurrence of arrhythmias: VT: first 15 minutes; for Arrhythmia Score: score system from 0 to 6
# Excerpt: The method used is essentially in agreement with the method of Lepran et al. [J. Pharmacol. Methods 9, pp. 219-230 (1983)].
# During a previous operation, male rats weighing 340 to 360 g each were fitted with a loose surgical thread loop around the left descending coronary vessel, at about 2 mm from its origin. The ends of the loop thread were led out from the chest under the skin, then the surgical wound was closed. After complete recovery from this previous operation (7 to 8 days) acute myocardial ischaemia was induced by contracting the loose ligation in the conscious, freely moving animals. ECG was continuously registered by using bipolar chest electrodes before the ligation of the coronary artery and during the first 15 minutes of ischaemia. The ratio of survivals was determined and the developed arrhythmias were evaluated according to the Lambeth Convention [Walker et al.: Cardiovasc. Res. 22, 447-455 (1988)]. For evaluation of the arrhythmic episodes a score system was also employed by considering the severity of episodes on the basis of a score system from 0 to 6. Both d-sotalol and the substance of Example 15, respectively, were suspended in 1% methylcellulose and administered orally through a gastric sound at 1 hour before the compression of the coronary vessel. The control animals received a treatment with the same volume, i.e. 5 ml/kg of vehicle.
# [3] = test system: isolated right ventricular trabecule of dog heart; test: Extracellular electrophysiological measurements: impulse conduction time and effective refractory period; set-up: species or system mongrel dogs; details: for activation at 30 µM / activation at 10 µM: Canis lupus familiaris; for effect on effective refractory period (in words) / effect on impulse conduction (in words): concentrations of Table 1
# Description: Right ventricular trabecules were prepared from the heart of mongrel dogs (weighing 5 to 10 kg each). The surviving heart pieces were placed into an organ bath (37° C.) containing modified Tyrode's nutrient medium and excited by point stimulation with a basal frequency of 1 Hz. Extracellular bipolar platinum electrodes were placed on the surface of the preparations, by means of which the propagation of the superficial potentials were registered; thus, the determination of the time of impulse conduction or the rate of impulse conduction, respectively, and the effective refractory period (ERP) became possible. During our experiments,the frequency of stimulation was temporarily varied from 0.5 Hz up to 3 Hz. The tested compounds were directly added to the organ bath after dilution of the stock solution according to the desired final concentration.
# [4] = test system: occlusion and reperfusion arrhythmias in anaesthetized dogs; test: Occlusion and reperfusion arrhythmias following acute coronary ligation in anaesthetized dogs; format: in vivo, mongrel dogs; details: 3 mg/kg i.v.
# Description: The method used is essentially in agreement with the method of Vegh et al. [Basic Res. Cardiol. 82, 159-171 (1987)].
# Mongrel dogs of both sexes weighing 10 to 20 kg each were anaesthetized by a mixture of chloralose (60 mg/kg) and urethane (200 mg/kg) and the animals were maintained on artificial respiration. After opening the chest, the ramus descendens anterior (LAD) branch of the left coronary artery of heart was prepared from the first main collateral branch and a loose loop from surgical thread was placed around it. During our experiments, the blood pressure of the animal was measured by using a cannule introduced to the left femoral artery and even the standard ECG parameters by using needle electrodes were continuously registered. The arrhythmias were induced by the occlusion for 25 minutes of a loop placed round the LAD. The survival after lethal arrhythmias and frequency of the arrhythmias were registered. The 28 dogs used in the experiments were divided into three groups. The compound of Example 15 was administered in a dose of 1 mg/kg to 8 animals; d-sotalol was given in a dose of 3 mg/kg to 10 animals by a single intravenous injection 10 minutes before compression of the coronary vessel. The control dogs (10 animals) received 5 ml of physiological saline solution in the same manner as the treated animals.
# By using this method it can be stated whether the substance investigated would be effective for protection against arrhythmias following the ligation of the coronary artery.
# [5] = test system: right ventricular papillary muscle of dogs; test: Intracellular microelectrode technique: action potential parameters, ventricular papillary muscle; set-up: species or system mongrel dogs; details: for Trecovery (recovery time constant of Vmax): Gy: kinetics of rapid restoration; for effect on duration of the action potential (in words) / effect on Vmax (in words): concentrations of Table 2; for effect on Vmax (in words): rapid recovery kinetics
# Description: The method used is essentially in agreement with the method of Papp et al. [J. Cardiovascular Pharmacol. Ther. 1, 287-296 (1996)].
# Right ventricular papillary muscle and Purkinje's fibres were prepared from the hearts of mongrel dogs (weighing 5 to 10 kg each). The preparations were placed into an organ bath (37° C.) containing modified Tyrode's nutrient medium. The preparations were excited by a basal frequency of 1 Hz. During the experiments, the frequency of stimulation was varied under broad limits by a computer-guided stimulator. The intracellular action potentials were registered by using glass capillary microelectrodes filled with 3 N potassium chloride solution (standard intracellular microelectrode techniques). The resting potential (RP), the amplitude of the action potential (APA) as well as the duration of the action potential (APD) were measured by using an IBM 386 compatible computer by means of an own-developed software. The compounds under test were directly added into the organ bath after dilution of the stock solutions according to the final concentrations desired. The effects of the compounds were observed after an incubation time of 30 to 40 minutes.
# [6] = 10 μM, 1 Hz, read-out: Prolongation (%) of ERP
# [7] = 10 μM, 1 Hz, read-out: Prolongation (%) of impulse conduction time
# [8] = 10 μM, 3 Hz, read-out: Prolongation (%) of ERP
# [9] = 10 μM, 3 Hz, read-out: Prolongation (%) of impulse conduction time
smiles,measurement,setting,value
"CC(C)NCC(O)c1ccc(NS(C)(=O)=O)cc1 (single isomer, unassigned) [d-Sotalol, d-N-[4-[1-hydroxy-2-(1-methylethylamino)ethyl]phenyl]methanesulfonamide hydrochloride]",mortality in clinical trials (in words),[1],increase in mortality ascribable to the proarrhythmic effect
same,antiarrhythmic effect (in words),[2]; oral administration,proved to be inactive
same,Survival 15 minutes,[2]; p.o. 25 mg/kg,2/29
same,Survival 16 hours,[2]; p.o. 25 mg/kg,2/29
same,Occurrence of arrhythmias: Brady,[2]; p.o. 25 mg/kg,2/29
same,Occurrence of arrhythmias: Free (no arrhythmia was observed),[2]; p.o. 25 mg/kg,0/0
same,Occurrence of arrhythmias: Other,[2]; p.o. 25 mg/kg,3/43
same,Occurrence of arrhythmias: VF,[2]; p.o. 25 mg/kg,7/100
same,Occurrence of arrhythmias: VT,[2]; p.o. 25 mg/kg,7/100
same,Arrhythmia Score,[2]; p.o. 25 mg/kg,5.71 ± 0.18
same,Survival 15 minutes,[2]; p.o. 50 mg/kg,1/10
same,Survival 16 hours,[2]; p.o. 50 mg/kg,0/0
same,Occurrence of arrhythmias: Brady,[2]; p.o. 50 mg/kg,1/10
same,Occurrence of arrhythmias: Free (no arrhythmia was observed),[2]; p.o. 50 mg/kg,0/0
same,Occurrence of arrhythmias: Other,[2]; p.o. 50 mg/kg,4/40
same,Occurrence of arrhythmias: VF,[2]; p.o. 50 mg/kg,1/100
same,Occurrence of arrhythmias: VT,[2]; p.o. 50 mg/kg,10/100
same,Arrhythmia Score,[2]; p.o. 50 mg/kg,5.90 ± 0.10
same,activation at 30 µM,"[3]; 1 Hz, read-out: Prolongation (%) of ERP",12.4%
same,activation at 30 µM,"[3]; 1 Hz, read-out: Prolongation (%) of impulse conduction time",-4.5 ± 5.1%
same,activation at 30 µM,"[3]; 3 Hz, read-out: Prolongation (%) of ERP",7.1%
same,activation at 30 µM,"[3]; 3 Hz, read-out: Prolongation (%) of impulse conduction time",-3.7 ± 4.7%
same,effect on effective refractory period (in words),[3],showed a considerable effect only on the ERP
same,"Complete survival, animals",[4],5/10
same,"Complete survival, percent",[4],50%
same,ES (extrasystole),[4]; occlusion,128 ± 14
same,"VF (ventricular fibrillation), animals",[4]; occlusion,3/10
same,"VF (ventricular fibrillation), percent",[4]; occlusion,30%
same,"VT (ventricular tachycardia), animals",[4]; occlusion,5/10
same,"VT (ventricular tachycardia), percent",[4]; occlusion,50%
same,"VF (ventricular fibrillation), animals",[4]; reperfusion,2/7
same,"VF (ventricular fibrillation), percent",[4]; reperfusion,29%
"Cc1cccc(C)c1OC[C@@H](C)N(C)CCc1ccc(NS(C)(=O)=O)cc1.Cl [Example 17, (R)-N-[4-[2-[N-Methyl-N-[2-(2,6-dimethylphenoxy)-1-methylethyl]amino]ethyl]phenyl]methanesulfonamide hydrochloride]",APA (amplitude of the action potential),[5]; 5 μM,106 mV
same,APD50 (time of 50% repolarization),[5]; 5 μM,203 ms
same,APD90 (time of 90% repolarization),[5]; 5 μM,249 ms
same,RP (resting potential),[5]; 5 μM,-87 mV
same,Recovery Ampl,[5]; 5 μM,85.2 V/s
same,Recovery Ampl/Plateau,[5]; 5 μM,0.52
same,Recovery Plateau,[5]; 5 μM,173.7 V/s
same,Vmax (maximum rate of depolarization),[5]; 5 μM,169 V/s
same,difference between the effects of Example 15 and its enantiomers (in words),[5]; 5 μM,No essential difference could be observed
same,Trecovery (recovery time constant of Vmax),[5]; 5 μM,390.4 ms
same,effect on duration of the action potential (in words),[5],simultaneous prolongation of duration of the action potential (APD)
same,effect on Vmax (in words),[5],mexiletine-like inhibition of Vmax
same,activation at 10 µM,[3]; [6],12.1%
same,activation at 10 µM,[3]; [7],32.5%
same,activation at 10 µM,[3]; [8],17.1%
same,activation at 10 µM,[3]; [9],35.1%
same,effect on effective refractory period (in words),[3],simultaneous prolongation of the effective refractory period (ERP)
same,effect on impulse conduction (in words),[3],significantly prolonged the time of impulse conduction in a frequency-dependent manner
"Cc1cccc(C)c1OCC(C)NCCc1ccc(NS(C)(=O)=O)cc1.Cl (stereo not shown) [Example 22, N-[4-[2-[N-[2-(2,6-Dimethylphenoxy)-1-methylethyl]amino]-ethyl]phenyl]methanesulfonamide hydrochloride]",APA (amplitude of the action potential),[5]; 5 μM,100 mV
same,APD50 (time of 50% repolarization),[5]; 5 μM,215 ms
same,APD90 (time of 90% repolarization),[5]; 5 μM,260 ms
same,RP (resting potential),[5]; 5 μM,-80 mV
same,Recovery Ampl,[5]; 5 μM,136.3 V/s
same,Recovery Ampl/Plateau,[5]; 5 μM,0.58
same,Recovery Plateau,[5]; 5 μM,232.8 V/s
same,Vmax (maximum rate of depolarization),[5]; 5 μM,159 V/s
same,Trecovery (recovery time constant of Vmax),[5]; 5 μM,337.8 ms
same,effect on duration of the action potential (in words),[5],simultaneous prolongation of duration of the action potential (APD)
same,effect on Vmax (in words),[5],mexiletine-like inhibition of Vmax
same,activation at 10 µM,[3]; [6],12.3%
same,activation at 10 µM,[3]; [7],22.6%
same,activation at 10 µM,[3]; [8],18.1%
same,activation at 10 µM,[3]; [9],28.3%
"Cc1cccc(C)c1OCC(C)N.Cl (stereo not shown) [Mexiletine, 2-(2,6-dimethylphenoxy)-1-methylethylamine hydrochloride, reference compound]",APA (amplitude of the action potential),[5]; 10 μM,115 mV
same,APD50 (time of 50% repolarization),[5]; 10 μM,244 ms
same,APD90 (time of 90% repolarization),[5]; 10 μM,270 ms
same,RP (resting potential),[5]; 10 μM,-92 mV
same,Recovery Ampl,[5]; 10 μM,84.0 V/s
same,Recovery Ampl/Plateau,[5]; 10 μM,0.45
same,Recovery Plateau,[5]; 10 μM,186.5 V/s
same,Vmax (maximum rate of depolarization),[5]; 10 μM,193 V/s
same,Trecovery (recovery time constant of Vmax),[5]; 10 μM,214.1 ms
same,activation at 10 µM,"[3]; read-out: Prolongation (%) of ERP, 10 μM, 1 Hz",-1.9 ± 1.7%
same,activation at 10 µM,"[3]; read-out: Prolongation (%) of ERP, 10 μM, 3 Hz",8.9%
same,activation at 10 µM,"[3]; read-out: Prolongation (%) of impulse conduction time, 10 μM, 1 Hz",3.9%
same,activation at 10 µM,"[3]; read-out: Prolongation (%) of impulse conduction time, 10 μM, 3 Hz",18.8%
same,effect on impulse conduction (in words),[3],exerted an effect mainly on impulse conduction
